Measurements taken from PubChem BioAssay AID330 (DTP/NCI, 2004).
Where “and” joins values, the source holds several entries; their conditions need not be identical. Equal entries are not always repeated. Inconclusive results and toxic doses are left out. Rule for the calls: active = survival T/C of 150% or more; inactive = T/C below 125% in these data.

Tested on: P388 leukemia ip, CD2F1 mice, survival T/C
Experiment: NCI In Vivo Anticancer Drug Screen. Data for tumor model P388 Leukemia (intraperitoneal) in CD2F1 (CDF1) mice
Settings: endpoint: median survival time, higher = longer survival
Outline: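 Mice carrying the transplanted tumor received test compound or vehicle. Survival was recorded in each group, and the value is the treated-group measurement divided by that of the vehicle-treated control group.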

[1] = dose: 50.0 mg/kg/injection, schedule: Q01DX005 (ip), vehicle: Klucel (hydroxypropylcellulose) (HPC)
[2] = dose: 100.0 mg/kg/injection, schedule: Q01DX005 (ip), vehicle: Klucel (hydroxypropylcellulose) (HPC)
[3] = dose: 200.0 mg/kg/injection, schedule: Q01DX005 (ip), vehicle: Klucel (hydroxypropylcellulose) (HPC)
[4] = dose: 60.0 mg/kg/injection, schedule: Q01DX005 (ip), vehicle: saline with Tween-80
[5] = dose: 12.5 mg/kg/injection, schedule: Q01DX009 (ip), vehicle: saline with Tween-80
[6] = dose: 25.0 mg/kg/injection, schedule: Q01DX009 (ip), vehicle: saline with Tween-80

Measured: T/C

CCCOC(=O)/C=C/C(=O)N1CC(C)N(C(=O)/C=C/C(=O)OCCC)CC1C (stereo not given)
inactive: [1] 109 % of control | [2] 98 % of control | [3] 98 % of control

O=C(NCc1cccnc1)Nc1cccc2c(NC(=O)NCc3cccnc3)cccc12
inactive: [4] 91 % of control | dose: 120.0 mg/kg/injection, schedule: Q01DX005 (ip), vehicle: saline with Tween-80 86 % of control | dose: 240.0 mg/kg/injection, schedule: Q01DX005 (ip), vehicle: saline with Tween-80 86 % of control

O=c1c(O)c(O)c1=O.[NH2-].[NH2-].[NH2-].[NH2-].[NH2-].[Ru+5]
inactive: dose: 10.56 mg/kg/injection, schedule: Q04DX002 (ip), vehicle: suspension in saline 121 % of control

Cc1ccc(NC(=O)CNCC(C)C)cc1Cl
inactive: [1] 100 % of control | [2] 109 % of control | [3] 100 % of control

Oc1c(Cl)cc(Cl)cc1C1Nc2ccccc2-n2cccc21 (stereo not given)
inactive: dose: 6.25 mg/kg/injection, schedule: Q01DX009 (ip), vehicle: saline with Tween-80 91 % of control | [5] 96 % of control | [6] 91 % of control

COc1ccc(C(O)(CS(C)=O)c2cccs2)cc1 (stereo not given)
inactive: [5] 94 % of control and 97 % of control | [6] 100 % of control and 102 % of control | dose: 50.0 mg/kg/injection, schedule: Q01DX009 (ip), vehicle: saline with Tween-80 110 % of control and 96 % of control | dose: 100.0 mg/kg/injection, schedule: Q01DX009 (ip), vehicle: saline with Tween-80 91 % of control and 96 % of control

CN1C2=CC=CC=CC2=[N+](C)C1C(=C=[N-])C#N (stereo not given)
inactive: dose: 15.0 mg/kg/injection, schedule: Q01DX005 (ip), vehicle: saline with Tween-80 104 % of control | dose: 30.0 mg/kg/injection, schedule: Q01DX005 (ip), vehicle: saline with Tween-80 107 % of control | [4] 107 % of control and 115 % of control

Cc1c2c[n+](CCCCCCCC[n+]3ccc4c(C)c5c(c(C)c4c3)c3ccccc3n5CCO)ccc2c(C)c2c1c1ccccc1n2CCO
inactive: dose: 50.0 mg/kg/injection, schedule: Q04DX003 (ip), vehicle: distilled water + Tween-80 87 % of control
active: dose: 0.78 mg/kg/injection, schedule: Q04DX003 (ip), vehicle: distilled water + Tween-80 154 % of control | dose: 1.56 mg/kg/injection, schedule: Q04DX003 (ip), vehicle: distilled water + Tween-80 155 % of control and 157 % of control | dose: 6.25 mg/kg/injection, schedule: Q04DX003 (ip), vehicle: distilled water + Tween-80 155 % of control and 158 % of control | dose: 12.5 mg/kg/injection, schedule: Q04DX003 (ip), vehicle: distilled water + Tween-80 158 % of control and 184 % of control | dose: 25.0 mg/kg/injection, schedule: Q04DX003 (ip), vehicle: distilled water + Tween-80 184 % of control

CCOC(=O)C(C#N)C1(O)C(=O)Nc2ccccc21 (stereo not given)
inactive: [1] 104 % of control | [2] 102 % of control | [3] 103 % of control

NCCC(N)=O
inactive: dose: 100.0 mg/kg/injection, schedule: Q01DX009 (ip), vehicle: saline 100 % of control | dose: 100.0 mg/kg/injection, schedule: Q04DX003 (ip), vehicle: saline sonified 109 % of control | dose: 200.0 mg/kg/injection, schedule: Q01DX009 (ip), vehicle: saline 95 % of control | dose: 200.0 mg/kg/injection, schedule: Q04DX003 (ip), vehicle: saline sonified 100 % of control | dose: 400.0 mg/kg/injection, schedule: Q01DX009 (ip), vehicle: saline 100 % of control | dose: 400.0 mg/kg/injection, schedule: Q04DX003 (ip), vehicle: saline sonified 100 % of control

COc1cccc(/C=N/NC(=O)c2ccccc2N2CCCC2)c1O
inactive: dose: 12.5 mg/kg/injection, schedule: Q01DX009 (ip), vehicle: olive oil, sesame oil, peanut oil 93 % of control | dose: 25.0 mg/kg/injection, schedule: Q01DX009 (ip), vehicle: olive oil, sesame oil, peanut oil 97 % of control | dose: 50.0 mg/kg/injection, schedule: Q01DX009 (ip), vehicle: olive oil, sesame oil, peanut oil 97 % of control | dose: 100.0 mg/kg/injection, schedule: Q01DX009 (ip), vehicle: olive oil, sesame oil, peanut oil 96 % of control | dose: 200.0 mg/kg/injection, schedule: Q01DX009 (ip), vehicle: olive oil, sesame oil, peanut oil 94 % of control
